Source: patent publication US12427192B2, “Water soluble adjuvant and composition containing same” (Sumitomo Pharma Co., Ltd., priority 2019, dated 2025)

Assays:
[1] = test system: HLA-A*02:01 transgenic mouse; test: Test 17: in vivo adjuvant activity, liposome formulation 2, IFNγ ELISPOT; settings: added to cocktail vaccine 1 (liposome formulation 2); 0.4 nmol per body, twice; FIG. 20 and 21
Method: Evaluation of In Vivo Adjuvant Activity in HLA-A*02:01 Transgenic Mouse
The in vivo adjuvant activity of the compound of Example 1 was evaluated in the following procedure.
To a vaccine (liposome formulation 2) comprising Compound of formula 4 prepared in Reference example 8 and Peptide SEQ ID No. 3 prepared in Reference example 3 (hereinafter, referred to as “cocktail vaccine 1”) was added the compound prepared in Example 1 to prepare a vaccine. The vaccine was administered to a HLA-A*02:01 transgenic mouse, and the adjuvant activity of the vaccine was evaluated by the method of testing antigen-specific CTL induction.
For example, the above liposome formulation 2 was prepared as follows. 42.66 mg of sphingomyelin and 15.47 mg of cholesterol were dissolved in t-butyl alcohol, and the mixture was lyophilized. […]
Cocktail vaccine 1 was injected to mice intradermally at the tail base area in an amount for administering 500 μg of Compound of formula 4 per body and 375 μg of Peptide SEQ ID No. 3 per body. […] Then, after removal of the supernatant from the wells, stained spots on the ELISPOT plate were counted.

[2] = test system: HLA-A*02:01 transgenic mouse; test: Test 6: in vivo adjuvant activity, vaccine c (Peptide SEQ ID No. 6), IFNγ ELISPOT; settings: added to vaccine c; 0.4 nmol per body, twice; FIG. 3
Method: Test 6 Evaluation of In Vivo Adjuvant Activity in HLA-A*02:01 Transgenic Mouse
The in vivo adjuvant activity of the compound of Example 1 was evaluated in the following procedure. To a vaccine prepared by mixing Peptide SEQ ID No. 6 prepared in Reference example 6 with Montanide ISA 51 VG (hereinafter, referred to as “vaccine c”) was added the compound prepared in Example 1 to prepare a vaccine. The vaccine was administered to a HLA-A*02:01 transgenic mouse, and the adjuvant activity of the vaccine was evaluated by the method of testing antigen-specific CTL induction. The GLYDGMEHL in Peptide SEQ ID No. 6 corresponds to an antigen peptide derived from an HLA-A*02:01-restricted MAGE-A10 protein.
The character for inducing CTLs specific to the antigen peptide (SEQ ID No. 6) by vaccine c was evaluated by measuring whether IFNγ can be produced upon stimulation of splenocytes from the mouse with the peptide. In addition, the character for exerting in vivo adjuvant activity by the compound in Example 1 was evaluated by comparing the number of CTLs induced by vaccine c and the number of CTLs induced by the vaccine prepared by adding the compound prepared in Example 1 to vaccine c, and checking presence or absence of the increase on the number.
Specifically, Peptide of SEQ ID No. 6 was dissolved in DMSO, and then diluted with water for injection to concentrations of 0.1 mg/mL. […]

`CCCCCNc1nc(N)nc(C)c1Cc1ccc(CN(C)CCOCCOCCOCCOCCO)cc1OC` [Example 1, 1-(4-{[2-amino-4-methyl-6-(pentylamino)pyrimidin-5-yl]methyl}-3-methoxyphenyl)-2-methyl-5,8,11,14-tetraoxa-2-azahexadecan-16-ol·trifluoroacetate] was tested, and the “CTL counts responsive to Peptide SEQ ID No. 1 or SEQ ID No. 4 compared with adding no compound” value [1] was “more” and the “CTL counts responsive to Peptide SEQ ID No. 6 compared with adding no compound” value [2] was “more”.
